# Assay results reported in the supplement of paper PMC10307832.
# Assays:
# Test in all cases: relative viability (nuclei count vs DMSO), 5 days (fraction); higher = more cells survive
# [1] = compound: CS(=O)(=O)c1ccc(-c2cnc(N)c(C(=O)Nc3ccccc3)n2)cc1 [VE-821] + Cc1nc(NC(=O)N2CCC[C@H]2C(N)=O)sc1-c1ccnc(C(C)(C)C(F)(F)F)c1 [Alpelisib] (partner 2 µM)
# How it was run: (§1)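 Dosing by pin tool came one day after lung cancer cell lines were seeded in 1536-well plates, using either one drug or a fixed anchor-drug dose plus five library-drug doses (not always all listed) in √10 steps. After 5 days, nuclei were counted on 4× images. Relative viability is treated-well nuclei count divided by vehicle-well nuclei count, and values are medians of duplicate plates.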
# [2] = compound: CS(=O)(=O)c1ccc(C(=O)Nc2ccc(Cl)c(-c3ccccn3)c2)c(Cl)c1 [Vismodegib] + Cc1cc(Nc2cc(N3CCN(C)CC3)nc(Sc3ccc(NC(=O)C4CC4)cc3)n2)n[nH]1 [Tozasertib] (partner 0.1 µM)
# How it was run: as §1
# [3] = compound: N#CC[C@H](C1CCCC1)n1cc(-c2ncnc3[nH]ccc23)cn1 [Ruxolitinib] + CC1(C)CCC(c2ccc(Cl)cc2)=C(CN2CCN(c3ccc(C(=O)NS(=O)(=O)c4ccc(N[C@H](CCN5CCOCC5)CSc5ccccc5)c(S(=O)(=O)C(F)(F)F)c4)cc3)CC2)C1 [Navitoclax] (partner 0.5 µM)
# How it was run: as §1
# [4] = compound: N#CC[C@H](C1CCCC1)n1cc(-c2ncnc3[nH]ccc23)cn1 [Ruxolitinib] + NC(=O)Nc1cc(-c2cccc(F)c2)sc1C(=O)N[C@H]1CCCNC1 [AZD7762] (partner 0.2 µM)
# How it was run: as §1
Cell Line,relative viability ([1]; first compound 0.08 µM),relative viability ([1]; first compound 0.253 µM),relative viability ([1]; first compound 0.8 µM),relative viability ([1]; first compound 2.53 µM),relative viability ([1]; first compound 8 µM),relative viability ([2]; first compound 0.08 µM),relative viability ([2]; first compound 0.253 µM),relative viability ([2]; first compound 0.8 µM),relative viability ([2]; first compound 2.53 µM),relative viability ([2]; first compound 8 µM),relative viability ([3]; first compound 0.08 µM),relative viability ([3]; first compound 0.253 µM),relative viability ([3]; first compound 0.8 µM),relative viability ([3]; first compound 2.53 µM),relative viability ([3]; first compound 8 µM),relative viability ([4]; first compound 0.08 µM),relative viability ([4]; first compound 0.253 µM),relative viability ([4]; first compound 0.8 µM),relative viability ([4]; first compound 2.53 µM),relative viability ([4]; first compound 8 µM)
SK-LU-1,1.02,0.964,0.803,0.499,0.328,0.269,0.348,0.295,0.347,0.361,0.79,0.634,0.0636,0.539,0.656,–,–,–,–,–
NCI-H2347,1.08,0.997,0.916,1.18,0.977,0.589,0.574,0.554,0.485,0.574,0.783,0.72,0.99,0.741,0.758,0.8,0.89,0.766,0.769,0.877
NCI-H727,0.687,0.683,0.585,0.551,0.425,0.785,0.619,0.644,0.53,0.62,0.472,0.426,0.627,0.595,0.366,0.701,0.461,0.587,0.8,0.979
COR-L23,0.787,0.714,0.746,0.837,0.525,0.203,0.218,0.181,0.177,0.168,1.03,1.1,1.21,0.907,0.638,–,–,–,–,–
NCI-H2126,0.757,0.744,0.625,0.747,0.645,0.841,0.814,0.849,0.772,0.794,0.82,0.725,0.781,0.8,0.689,0.954,1.12,1.09,0.995,0.967
NCI-H1703,0.379,0.253,0.279,0.343,0.233,–,–,–,–,–,1.18,1.23,1.23,0.562,0.611,0.127,0.126,0.143,–,0.115
H3255,0.821,0.76,0.665,0.844,0.66,0.524,0.55,0.623,0.606,0.563,0.248,0.393,0.474,0.423,0.425,0.783,0.868,1.08,0.774,0.743
NCI-H358,1.04,0.999,0.904,0.838,0.605,0.0964,0.104,0.104,0.103,0.0976,–,–,–,–,–,0.5,0.653,0.504,0.404,0.445
NCI-H2009,1.11,1.18,1.12,1.19,1.28,0.727,0.674,0.834,0.817,0.733,1.2,1.2,1.16,0.961,0.897,–,–,–,–,–
ABC-1,1.21,0.854,0.91,1.03,0.904,0.15,0.153,0.182,0.184,0.158,–,–,–,–,–,–,1.07,0.834,0.743,0.928
NCI-H661,0.693,0.705,0.573,0.765,0.559,0.352,0.339,0.353,0.359,0.365,–,–,–,–,–,–,–,–,–,–
NCI-H1648,–,–,–,–,–,0.395,0.461,0.348,0.427,0.562,–,–,–,–,–,0.739,0.817,0.658,0.914,1.15
A549,0.995,0.746,0.624,0.872,0.548,–,–,–,–,–,1.2,1.16,1.21,0.961,0.508,–,–,–,–,–
NCI-H1563,0.896,0.933,0.739,0.805,0.797,–,–,–,–,–,–,–,–,–,–,–,–,–,–,–
NCI-H1623,–,–,–,–,–,0.403,0.42,0.422,0.418,0.411,–,–,–,–,–,–,–,–,–,–
SK-MES-1,1.03,0.847,0.776,0.954,0.866,0.881,0.871,0.974,0.841,0.827,1.3,1.12,1.26,1.18,0.9,–,–,–,–,–
NCI-H2228,0.7,0.825,0.683,0.687,0.737,0.218,0.277,0.23,0.217,0.265,0.925,0.987,1.02,0.921,0.712,–,–,–,–,–
IA-LM,0.905,0.475,0.797,1.04,0.738,–,–,–,–,–,0.821,0.85,0.913,0.743,0.395,–,–,–,–,–
NCI-H522,–,–,–,–,–,0.534,0.508,0.529,0.548,0.577,–,–,–,–,–,0.948,0.716,1.01,0.794,0.803
EBC-1,0.888,0.75,0.742,0.779,0.683,–,–,–,–,–,0.372,0.435,0.402,0.347,0.237,–,–,–,–,–
Calu-6,0.988,0.896,0.939,0.972,0.66,–,–,–,–,–,0.836,0.858,0.862,0.767,0.294,–,–,–,–,–
NCI-H650,1.19,1.25,0.932,1.19,1.1,0.725,0.778,0.705,0.743,0.718,–,–,–,–,–,0.951,1.06,1.01,0.993,0.707
NCI-H1792,0.846,0.919,0.584,0.587,0.681,–,–,–,–,–,0.658,0.644,0.595,0.473,0.519,0.557,0.636,0.63,0.475,0.391
